According to PMC7379272, “Functional analysis of UGT201D3 associated with abamectin resistance in Tetranychus cinnabarinus (Boisduval)” (Insect Science, 2018):

Target: T1, (UniProt A0A221C6W1)
T1 construct: gene UGT201D3; recombinant pET-28a-UGT201D3q, 15 N-terminal hydrophobic amino acids removed, expressed in E. coli BL21 (DE3), Ni-NTA purified
Assay: inhibition of α-naphthol glycosylation by the purified recombinant enzyme, Dixon plot (IC50 […]); HPLC depletion of abamectin
Assay type: biochemical, Tetranychus cinnabarinus

T1 sequence (A0A221C6W1 16-460 limits assumed): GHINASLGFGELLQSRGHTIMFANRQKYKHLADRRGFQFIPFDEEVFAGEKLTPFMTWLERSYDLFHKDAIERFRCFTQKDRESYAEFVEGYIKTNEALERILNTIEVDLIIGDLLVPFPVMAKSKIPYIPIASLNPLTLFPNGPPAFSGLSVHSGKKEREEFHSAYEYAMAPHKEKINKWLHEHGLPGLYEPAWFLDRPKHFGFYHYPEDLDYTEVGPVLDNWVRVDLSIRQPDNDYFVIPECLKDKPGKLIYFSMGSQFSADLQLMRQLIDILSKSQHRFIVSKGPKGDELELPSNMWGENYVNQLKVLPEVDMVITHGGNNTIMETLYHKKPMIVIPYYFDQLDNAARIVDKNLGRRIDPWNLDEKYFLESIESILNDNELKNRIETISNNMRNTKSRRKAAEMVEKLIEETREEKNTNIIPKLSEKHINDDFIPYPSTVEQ

CC[C@H](C)[C@H]1O[C@]2(C=C[C@@H]1C)C[C@@H]1C[C@@H](C/C=C(\C)[C@@H](O[C@H]3C[C@H](OC)[C@@H](O[C@H]4C[C@H](OC)[C@@H](O)[C@H](C)O4)[C@H](C)O3)[C@@H](C)/C=C/C=C3\CO[C@@H]4[C@H](O)C(C)=C[C@@H](C(=O)O1)[C@]34O)O2.CO[C@H]1C[C@H](O[C@H]2[C@H](C)O[C@@H](O[C@@H]3/C(C)=C/C[C@@H]4C[C@@H](C[C@]5(C=C[C@H](C)[C@@H](C(C)C)O5)O4)OC(=O)[C@@H]4C=C(C)[C@@H](O)[C@H]5OC/C(=C\C=C\[C@@H]3C)[C@]54O)C[C@@H]2OC)O[C@@H](C)[C@@H]1O [abamectin]
Ki: 9.9 ± 6.2 µM
